Reference: ChEMBL document CHEMBL1201861, “Genomics of Drug Sensitity in Cancer screening data, Wellcome Trust Sanger Institute”

Columns and labels:
Assay type in all cases: functional, cell-based
[1] = system: COLO-679; assay: cells; settings: Homo sapiens
Description: SANGER: Inhibition of human COLO-679 cell growth in a cell viability assay.

[2] = system: MIA PaCa-2; assay: cells; settings: Homo sapiens;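 note: growth inhibition of MIA PaCa-2 cells, read out with a cell viability assay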
Description: SANGER: Inhibition of human MIA-PaCa-2 cell growth in a cell viability assay.

[3] = system: REH; assay: cells; settings: Homo sapiens;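 note: growth inhibition of REH cells determined with a cell viability read-out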
Description: SANGER: Inhibition of human REH cell growth in a cell viability assay.

[4] = system: SNU-423; assay: cells; settings: Homo sapiens
Description: SANGER: Inhibition of human SNU-423 cell growth in a cell viability assay.

[5] = system: HCC2157; assay: cells; settings: Homo sapiens;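 note: growth inhibition of the cancer cell line, read out as cell viability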
Description: SANGER: Inhibition of human HCC2157 cell growth in a cell viability assay.

[6] = system: NCI-H1703; assay: cells; settings: Homo sapiens;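 note: growth inhibition of NCI-H1703 cells, read out via a cell viability assay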
Description: SANGER: Inhibition of human NCI-H1703 cell growth in a cell viability assay.

[7] = system: SKG-IIIa; assay: cells; settings: Homo sapiens;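 note: cell growth inhibition, read out with a cell viability assay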
Description: SANGER: Inhibition of human SKG-IIIa cell growth in a cell viability assay.

[8] = system: Panc1005; assay: cells; settings: Homo sapiens;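 note: growth inhibition of human PANC-10-05 cells, measured by a cell viability assay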
Description: SANGER: Inhibition of human PANC-10-05 cell growth in a cell viability assay.

[9] = system: HCC1954; assay: cells; settings: Homo sapiens;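 note: growth inhibition of human HCC1954 cells, read out with a cell viability assay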
Description: SANGER: Inhibition of human HCC1954 cell growth in a cell viability assay.

[10] = system: NCI-H1563; assay: cells; settings: Homo sapiens;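 note: growth inhibition of human NCI-H1563 cells, read out with a cell viability assay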
Description: SANGER: Inhibition of human NCI-H1563 cell growth in a cell viability assay.

[11] = system: DK-MG; assay: cells; settings: Homo sapiens;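 note: growth inhibition of DK-MG cells, read out with a cell viability assay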
Description: SANGER: Inhibition of human DK-MG cell growth in a cell viability assay.

[12] = system: Detroit 562; assay: cells; settings: Homo sapiens;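 note: growth inhibition of human Detroit 562 cells, read out by a cell viability assay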
Description: SANGER: Inhibition of human Detroit562 cell growth in a cell viability assay.

[13] = system: KYSE-70 cell line; assay: cells; settings: Homo sapiens;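 note: cell viability assay read-out, with IC50 expressing suppression of KYSE-70 cell growth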
Description: SANGER: Inhibition of human KYSE-70 cell growth in a cell viability assay.

[14] = system: KP-4; assay: cells; settings: Homo sapiens;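 note: human KP-4 cells, with growth inhibition read out through a cell viability assay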
Description: SANGER: Inhibition of human KP-4 cell growth in a cell viability assay.

[15] = system: BHT-101; assay: cells; settings: Homo sapiens
Description: SANGER: Inhibition of human BHT-101 cell growth in a cell viability assay.

[16] = system: PA-1; assay: cells; settings: Homo sapiens;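 note: IC50 for suppression of PA-1 cell proliferation, determined with a cell viability read-out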
Description: SANGER: Inhibition of human PA-1 cell growth in a cell viability assay.

[17] = system: OVCAR-5; assay: cells; settings: Homo sapiens;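 note: growth inhibition of human OVCAR-5 cells, read out with a cell viability assay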
Description: SANGER: Inhibition of human OVCAR-5 cell growth in a cell viability assay.

[18] = system: A673; assay: cells; settings: Homo sapiens;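 note: growth inhibition of human A673 cells, read out through a cell viability assay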
Description: SANGER: Inhibition of human A673 cell growth in a cell viability assay.

[19] = system: EFO-21; assay: cells; settings: Homo sapiens;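 note: growth inhibition of EFO-21 cells measured with a viability assay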
Description: SANGER: Inhibition of human EFO-21 cell growth in a cell viability assay.

[20] = system: T47D; assay: cells; settings: Homo sapiens;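 note: growth inhibition of human T47D cells, measured with a cell viability assay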
Description: SANGER: Inhibition of human T47D cell growth in a cell viability assay.

[21] = system: S-117; assay: cells; settings: Homo sapiens
Description: SANGER: Inhibition of human S-117 cell growth in a cell viability assay.

[22] = system: Ca-Ski; assay: cells; settings: Homo sapiens;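 note: cell viability assay measuring inhibition of Ca-Ski cell growth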
Description: SANGER: Inhibition of human Ca-Ski cell growth in a cell viability assay.

[23] = system: YKG-1; assay: cells; settings: Homo sapiens;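 note: cell growth inhibition, read out with a viability assay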
Description: SANGER: Inhibition of human YKG-1 cell growth in a cell viability assay.

[24] = system: GDM-1; assay: cells; settings: Homo sapiens;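 note: cell viability readout used to measure growth inhibition of human GDM-1 cells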
Description: SANGER: Inhibition of human GDM-1 cell growth in a cell viability assay.

[25] = system: ME-180; assay: cells; settings: Homo sapiens;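 note: cell viability assay measuring growth inhibition of ME-180 cells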
Description: SANGER: Inhibition of human ME-180 cell growth in a cell viability assay.

[26] = system: SW48; assay: cells; settings: Homo sapiens;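 note: growth inhibition of SW48 cells, read out with a cell viability assay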
Description: SANGER: Inhibition of human SW48 cell growth in a cell viability assay.

[27] = system: C3A; assay: cells; settings: Homo sapiens;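 note: growth inhibition of C3A human cells, quantified with a cell viability readout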
Description: SANGER: Inhibition of human C3A cell growth in a cell viability assay.

[28] = system: NCI-H1963; assay: cells; settings: Homo sapiens;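 note: cell growth inhibition of the human line, determined with a cell viability assay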
Description: SANGER: Inhibition of human NCI-H1963 cell growth in a cell viability assay.

[29] = system: DG-75; assay: cells; settings: Homo sapiens;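 note: growth inhibition of DG-75 cells, read out with a cell viability assay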
Description: SANGER: Inhibition of human DG-75 cell growth in a cell viability assay.

[30] = system: EFM-19; assay: cells; settings: Homo sapiens;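 note: growth inhibition of human EFM-19 cells, measured in a cell viability assay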
Description: SANGER: Inhibition of human EFM-19 cell growth in a cell viability assay.

[31] = system: NCI-H1694; assay: cells; settings: Homo sapiens;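 note: cell viability assay measuring inhibition of growth in human NCI-H1694 cells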
Description: SANGER: Inhibition of human NCI-H1694 cell growth in a cell viability assay.

[32] = system: AN3-CA; assay: cells; settings: Homo sapiens;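 note: growth inhibition of human AN3-CA cells measured by a cell viability assay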
Description: SANGER: Inhibition of human AN3-CA cell growth in a cell viability assay.

[33] = system: NCI-H522; assay: cells; settings: Homo sapiens;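 note: cell viability assay measuring growth inhibition of human NCI-H522 cells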
Description: SANGER: Inhibition of human NCI-H522 cell growth in a cell viability assay.

[34] = system: A253 cell line; assay: cells; settings: Homo sapiens;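 note: growth inhibition of A253 cells, read out with a cell viability assay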
Description: SANGER: Inhibition of human A253 cell growth in a cell viability assay.

[35] = system: SCC-4; assay: cells; settings: Homo sapiens;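 note: growth inhibition of human SCC-4 cells, read out as cell viability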
Description: SANGER: Inhibition of human SCC-4 cell growth in a cell viability assay.

[36] = system: COLO-792; assay: cells; settings: Homo sapiens
Description: SANGER: Inhibition of human COLO-792 cell growth in a cell viability assay.

[37] = system: COR-L279; assay: SANGER: Inhibition of human COR-L279 cell growth in a cell viability assay.
[38] = system: PC-3; assay: cells; settings: Homo sapiens;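 note: cell viability assay measuring growth inhibition of PC-3 cells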
Description: SANGER: Inhibition of human PC-3 cell growth in a cell viability assay.

[39] = system: NCI-H1436; assay: cells; settings: Homo sapiens;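 note: growth suppression of human NCI-H1436 cells, determined with a cell viability readout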
Description: SANGER: Inhibition of human NCI-H1436 cell growth in a cell viability assay.

[40] = system: A 172; assay: cells; settings: Homo sapiens;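 note: growth inhibition of A172 cells, measured with a cell viability readout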
Description: SANGER: Inhibition of human A172 cell growth in a cell viability assay.

[41] = system: PANC-08-13; assay: cells; settings: Homo sapiens
Description: SANGER: Inhibition of human PANC-08-13 cell growth in a cell viability assay.

[42] = system: SCC-3; assay: cells; settings: Homo sapiens;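 note: cell viability assay measuring inhibition of SCC-3 cell growth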
Description: SANGER: Inhibition of human SCC-3 cell growth in a cell viability assay.

[43] = system: KU-19-19; assay: cells; settings: Homo sapiens
Description: SANGER: Inhibition of human KU-19-19 cell growth in a cell viability assay.

[44] = system: ST486; assay: SANGER: Inhibition of human ST486 cell growth in a cell viability assay.
[45] = system: A2780; assay: cells; settings: Homo sapiens;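 note: growth inhibition of A2780 cells, read out with a cell viability assay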
Description: SANGER: Inhibition of human A2780 cell growth in a cell viability assay.

[46] = system: NCI-H441; assay: cells; settings: Homo sapiens;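 note: growth inhibition of NCI-H441 cells, read out with a cell viability assay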
Description: SANGER: Inhibition of human NCI-H441 cell growth in a cell viability assay.

[47] = system: NCI-H2347; assay: cells; settings: Homo sapiens;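 note: growth inhibition of the cell line, read out with a cell viability assay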
Description: SANGER: Inhibition of human NCI-H2347 cell growth in a cell viability assay.

[48] = system: A-375; assay: cells; settings: Homo sapiens;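 note: growth inhibition of A375 cells, read out with a cell viability assay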
Description: SANGER: Inhibition of human A375 cell growth in a cell viability assay.

[49] = system: PC-14; assay: cells; settings: Homo sapiens;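 note: cell viability assay measuring inhibition of PC-14 cell growth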
Description: SANGER: Inhibition of human PC-14 cell growth in a cell viability assay.

[50] = system: HCC70; assay: cells; settings: Homo sapiens;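 note: cell viability assay measuring how strongly the compound suppresses proliferation of HCC70 cells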
Description: SANGER: Inhibition of human HCC70 cell growth in a cell viability assay.

[51] = system: KYSE-180; assay: cells; settings: Homo sapiens;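 note: growth inhibition of KYSE-180 cells, read out with a cell viability assay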
Description: SANGER: Inhibition of human KYSE-180 cell growth in a cell viability assay.

[52] = system: CHP-212; assay: cells; settings: Homo sapiens
Description: SANGER: Inhibition of human CHP-212 cell growth in a cell viability assay.

[53] = system: MEL-HO; assay: cells; settings: Homo sapiens
Description: SANGER: Inhibition of human MEL-HO cell growth in a cell viability assay.

[54] = system: Raji; assay: cells; settings: Homo sapiens;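 note: cell viability assay measuring inhibition of Raji cell growth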
Description: SANGER: Inhibition of human Raji cell growth in a cell viability assay.

[55] = system: U-698-M; assay: cells; settings: Homo sapiens
Description: SANGER: Inhibition of human U-698-M cell growth in a cell viability assay.

[56] = system: AU565; assay: cells; settings: Homo sapiens;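 note: cell viability assay measuring growth inhibition of human AU565 cells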
Description: SANGER: Inhibition of human AU565 cell growth in a cell viability assay.

[57] = system: RL; assay: cells; settings: Homo sapiens
Description: SANGER: Inhibition of human RL cell growth in a cell viability assay.

[58] = system: NY; assay: cells; settings: Homo sapiens
Description: SANGER: Inhibition of human NY cell growth in a cell viability assay.

[59] = system: HSC-2; assay: cells; settings: Homo sapiens;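 note: growth inhibition of human HSC-2 cells, read out by a cell viability assay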
Description: SANGER: Inhibition of human HSC-2 cell growth in a cell viability assay.

[60] = system: CA46; assay: cells; settings: Homo sapiens;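 note: growth inhibition of human CA46 cells, read out by a cell viability assay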
Description: SANGER: Inhibition of human CA46 cell growth in a cell viability assay.

[61] = system: NCI-H524; assay: cells; settings: Homo sapiens;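 note: growth inhibition of human NCI-H524 cells, read out through a cell viability assay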
Description: SANGER: Inhibition of human NCI-H524 cell growth in a cell viability assay.

[62] = system: G-361; assay: cells; settings: Homo sapiens

Structure (SMILES): N#C/C(=C1/Nc2ccccc2S1)c1ccnc(NCCc2cccnc2)n1
- IC50 [1]: > 8000 nM
- IC50 [2]: 976 nM
- IC50 [3]: > 8000 nM
- IC50 [4]: 2300 nM
- IC50 [5]: > 8000 nM
- IC50 [6]: > 8000 nM
- IC50 [7]: > 8000 nM
- IC50 [8]: > 8000 nM
- IC50 [9]: > 8000 nM
- IC50 [10]: > 8000 nM
- IC50 [11]: > 8000 nM
- IC50 [12]: 7080 nM
- IC50 [13]: 4060 nM
- IC50 [14]: 6430 nM
- IC50 [15]: > 8000 nM
- IC50 [16]: 1530 nM
- IC50 [17]: > 8000 nM
- IC50 [18]: > 8000 nM
- IC50 [19]: > 8000 nM
- IC50 [20]: > 8000 nM
- IC50 [21]: 6940 nM
- IC50 [22]: > 8000 nM
- IC50 [23]: 3770 nM
- IC50 [24]: > 8000 nM
- IC50 [25]: > 8000 nM
- IC50 [26]: 2160 nM
- IC50 [27]: 2810 nM
- IC50 [28]: > 8000 nM
- IC50 [29]: > 8000 nM
- IC50 [30]: 5390 nM
- IC50 [31]: > 8000 nM
- IC50 [32]: 2590 nM
- IC50 [33]: 4930 nM
- IC50 [34]: > 8000 nM
- IC50 [35]: > 8000 nM
- IC50 [36]: > 8000 nM
- IC50 [37]: > 8000 nM
- IC50 [38]: > 8000 nM
- IC50 [39]: > 8000 nM
- IC50 [40]: 2160 nM
- IC50 [41]: 3630 nM
- IC50 [42]: > 8000 nM
- IC50 [43]: > 8000 nM
- IC50 [44]: 1740 nM
- IC50 [45]: > 8000 nM
- IC50 [46]: 5480 nM
- IC50 [47]: > 8000 nM
- IC50 [48]: > 8000 nM
- IC50 [49]: 3620 nM
- IC50 [50]: > 8000 nM
- IC50 [51]: > 8000 nM
- IC50 [52]: > 8000 nM
- IC50 [53]: 5460 nM
- IC50 [54]: > 8000 nM
- IC50 [55]: 2980 nM
- IC50 [56]: 2550 nM
- IC50 [57]: > 8000 nM
- IC50 [58]: 2760 nM
- IC50 [59]: > 8000 nM
- IC50 [60]: 5450 nM
- IC50 [61]: > 8000 nM
- IC50 [62]: > 8000 nM

Structure (SMILES): CO[C@@]12[C@H](COC(N)=O)C3=C(C(=O)C(C)=C(N)C3=O)N1C[C@@H]1N[C@@H]12 [MITOMYCIN]
- IC50 [1]: 90.2 nM
- IC50 [2]: 275 nM
- IC50 [3]: < 62.5 nM
- IC50 [4]: 1520 nM
- IC50 [5]: 727 nM
- IC50 [6]: 277 nM
- IC50 [7]: 377 nM
- IC50 [8]: 73.7 nM
- IC50 [9]: 2280 nM
- IC50 [10]: 1430 nM
- IC50 [11]: > 16000 nM
- IC50 [12]: 170 nM
- IC50 [13]: 224 nM
- IC50 [15]: 1740 nM
- IC50 [16]: 23.5 nM
- IC50 [17]: 487 nM
- IC50 [18]: 790 nM
- IC50 [19]: 591 nM
- IC50 [20]: 6370 nM
- IC50 [21]: 592 nM
- IC50 [22]: 53.8 nM
- IC50 [23]: 545 nM
- IC50 [24]: 377 nM
- IC50 [25]: 40.1 nM
- IC50 [26]: 193 nM
- IC50 [27]: 194 nM
- IC50 [28]: 974 nM
- IC50 [29]: 6250 nM
- IC50 [30]: 2090 nM
- IC50 [31]: 415 nM
- IC50 [32]: 523 nM
- IC50 [33]: 169 nM
- IC50 [34]: 346 nM
- IC50 [35]: 388 nM
- IC50 [36]: 1500 nM
- IC50 [37]: < 62.5 nM
- IC50 [38]: 4070 nM
- IC50 [39]: 1930 nM
- IC50 [40]: 538 nM
- IC50 [41]: 2400 nM
- IC50 [42]: < 62.5 nM
- IC50 [43]: 3360 nM
- IC50 [44]: 494 nM
- IC50 [45]: 107 nM
- IC50 [46]: 17.6 nM
- IC50 [47]: 850 nM
- IC50 [48]: 139 nM
- IC50 [49]: 491 nM
- IC50 [50]: 694 nM
- IC50 [51]: 202 nM
- IC50 [52]: < 62.5 nM
- IC50 [53]: 39.4 nM
- IC50 [54]: 1220 nM
- IC50 [55]: 1600 nM
- IC50 [56]: 501 nM
- IC50 [57]: 5440 nM
- IC50 [58]: 657 nM
- IC50 [59]: 83.4 nM
- IC50 [60]: 1020 nM
- IC50 [61]: 2700 nM
- IC50 [62]: 124 nM
